Measured values as given in US20260284082A1, “TARGETING THE PANX1-P2Y2R-TRPV4 PATHWAY TO TREAT LUNG ISCHEMIA-REPERFUSION INJURY” (UNIVERSITY OF VIRGINIA PATENT FOUNDATION, priority 2023, published 2026).

Key:
lung IRI = conditions: wild-type mice pretreated, left hilar ligation model; 1 mg/kg intravenous dose; cited from earlier work
TRPV4EC channels = assay: TRPV4 sparklet activity in human PMVECs exposed to acute HR; format: cell-based; parameters: dose or concentration left out as unconfirmed; conditions: 1 h hypoxia + 10 min reoxygenation
Experimental: TRPV4 sparklets were assessed as increases in fluorescence relative to baseline fluorescence, obtained by averaging 10 quiescent images prior to stimulation. TRPV4 Ca^2+ sparklets were assessed based on previously established methods.^9,11 Average TRPV4 sparklet activity is defined as NPO, where N is the number of TRPV4 channels per site and PO is the open-state probability of the channel. NPO was calculated using the Single Channel Search module of Clampfit. quantal amplitudes derived from all-points histograms (0.3 AF/F0 for Fluo-4-loaded Pas),^12 and the following equation: NPO=(Tlevel1+2Tlevel2+3Tlevel3+4Tlevel4)/Ttotal, where T represents the dwell time at each quantal level and Ttotal is the total recording duration. […]
Ca^2+ imaging in human and mouse PMVECs was performed using an Andor Dragonfly 505 spinning-disk confocal imaging system with Borealis illumination and an Integrated Laser Engine solid-state laser source (Andor Technology, Belfast, UK), coupled with a Leica Dmi8 inverted microscope (Leica) and 63× objective (NA 1.47)^13 Images were acquired at 30 frames per second using Fusion 2.3 (Oxford Instruments, Belfast, UK) and an electron-multiplying CCD camera (iXon888). Calbryte 520 AM was excited at 488 nm, and emitted fluorescence was captured using a 525/50 bandpass emission filter. […]

SMILES	lung IRI (lung IRI)	HR-induced increase in TRPV4EC sparklets (TRPV4EC channels)
O=C(NC1(c2ccccc2)CC1)c1c(CN2CCC(N3CCCCC3)CC2)c(-c2cccc(C(F)(F)F)c2)nc2cc(Br)ccc12 [GSK219, GSK2193874]	significant attenuation	
Cc1ccc2c(c1)C=Cc1cc(C)ccc1C2c1cn(Cc2ccc(C(=O)Nc3nn[nH]n3)o2)c(=O)[nH]c1=S [ARC, AR-C 118925XX]		blocked
